In PMC3958412, “Proteasome Dysfunction Mediates High Glucose-Induced Apoptosis in Rodent Beta Cells and Human Islets” (PLoS ONE, 2014):
pKi: −log10 of the molar value. Residues, ends and D or L forms follow the SMILES beside them. *: point of attachment. Cbz = O=C(OCc1ccccc1)*

Assays:
Format in all cases: cell-based
[1] = target: T1, 20S proteasome β2 subunit (trypsin-like activity) (Rattus norvegicus, UniProt Q9JHW0); experiment: trypsin-like activity (Z-ARR-MCA cleavage) in lysates of INS-1E cells treated with […] MG-132; details: read-out: % inhibition at 150 nM
T1 construct: gene Psmb7; with other subunits of the 20S/26S proteasome
T1 sequence (Q9JHW0 44-277): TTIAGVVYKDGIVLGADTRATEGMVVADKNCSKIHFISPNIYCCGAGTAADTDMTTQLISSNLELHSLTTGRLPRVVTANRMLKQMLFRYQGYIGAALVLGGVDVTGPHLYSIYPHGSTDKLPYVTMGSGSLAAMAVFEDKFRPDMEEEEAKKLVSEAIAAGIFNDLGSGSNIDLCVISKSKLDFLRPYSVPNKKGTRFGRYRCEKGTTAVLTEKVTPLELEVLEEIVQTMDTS

[2] = target: T2, 20S proteasome β5 subunit (chymotrypsin-like activity) (Rattus norvegicus, UniProt P28075); experiment: chymotrypsin-like activity (Suc-LLVY-MCA cleavage) in lysates of MG-132-treated INS-1E cells, dose-response
T2 construct: gene Psmb5; with other subunits of the 20S/26S proteasome
T2 sequence (P28075 60-263): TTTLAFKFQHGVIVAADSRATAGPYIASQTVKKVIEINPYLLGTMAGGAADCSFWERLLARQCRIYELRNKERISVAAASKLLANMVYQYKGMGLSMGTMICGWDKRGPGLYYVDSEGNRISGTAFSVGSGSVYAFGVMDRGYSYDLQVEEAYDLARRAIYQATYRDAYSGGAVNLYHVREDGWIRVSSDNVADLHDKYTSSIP

[3] = target: T3, 20S proteasome β1 subunit (caspase-like activity) (Rattus norvegicus, UniProt P28073); experiment: caspase-like activity (Z-LLE-MCA cleavage) in lysates of INS-1E cells treated with […] MG-132; details: read-out: % inhibition at 150 nM
T3 construct: gene Psmb6; with other subunits of the 20S/26S proteasome
T3 sequence (P28073 34-238): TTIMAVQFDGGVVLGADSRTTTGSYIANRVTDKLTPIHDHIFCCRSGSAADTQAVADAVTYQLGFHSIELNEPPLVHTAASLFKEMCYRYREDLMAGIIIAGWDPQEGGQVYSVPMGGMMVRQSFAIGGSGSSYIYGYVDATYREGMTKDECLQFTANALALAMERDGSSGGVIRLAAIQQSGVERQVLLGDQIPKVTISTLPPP

CC(C)C[C@@H](C=O)NC(=O)[C@H](CC(C)C)NC(=O)[C@H](CC(C)C)NC(=O)OCc1ccccc1 [MG-132] (Cbz-Leu-Leu-Leu-aldehyde)
inhibition at 0.15 µM [1]: 50% | pKi [2]: 7.30 | inhibition at 0.15 µM [3]: 80%
